Experimental data reported in ChEMBL document CHEMBL5500383, “Recent advances and future directions on small molecule VEGFR inhibitors in oncological conditions” (Eur J Med Chem, 2024).
Each block holds one compound with its values, some of them ahead of it.

Tests used:
[1] = target: T1, Vascular endothelial growth factor receptor 2 (Homo sapiens, UniProt P35968); experiment: Inhibition of VEGFR2 (unknown origin) using Poly-(Glu,Tyr 4:1) peptide as substrate incubated for 1 hr by ELISA method
HepG2 [2] = experiment: Cytotoxicity against human HepG2 cells assessed as reduction in cell growth incubated for 48 hrs by MTT assay; format: functional, cell-based; conditions: HepG2, 48 h
HCT-116 [3] = experiment: Cytotoxicity against human HCT-116 cells assessed as reduction in cell growth incubated for 48 hrs by MTT assay; format: functional, cell-based; conditions: HCT-116, 48 h
MCF7 [4] = experiment: Cytotoxicity against human MCF7 cells assessed as reduction in cell viability incubated for 48 hrs by MTT assay; format: functional, cell-based; conditions: MCF7, 48 h
[5] = target: T1, Vascular endothelial growth factor receptor 2; experiment: Inhibition of human VEGFR-2 by ELISA method
HepG2 [6] = experiment: Antiproliferative activity against human HepG2 cells assessed as reduction in cell growth incubated for 24 hrs by MTT assay; format: functional, cell-based; conditions: HepG2, 24 h
MCF7 [7] = experiment: Antiproliferative activity against human MCF7 cells assessed as reduction in cell growth incubated for 24 hrs by MTT assay; format: functional, cell-based; conditions: MCF7, 24 h
HCT-116 [8] = experiment: Antiproliferative activity against human HCT-116 cells assessed as reduction in cell growth incubated for 24 hrs by MTT assay; format: functional, cell-based; conditions: HCT-116, 24 h
[9] = target: T1, Vascular endothelial growth factor receptor 2; experiment: Inhibition of GST-tagged human recombinant VEGFR2
HepG2 [10] = experiment: Antiproliferative activity against human HepG2 cells assessed as cell growth inhibition incubated for 24 hrs by MTT assay; format: functional, cell-based; conditions: HepG2, 24 h
PC-3 [11] = experiment: Antiproliferative activity against human PC-3 cells assessed as cell growth inhibition incubated for 24 hrs by MTT assay; format: functional, cell-based; conditions: PC-3, 24 h
WI-38 = experiment: (§1) Antiproliferative activity against human WI-38 cells assessed as cell growth inhibition incubated for 24 hrs by MTT assay; format: toxicity, cell-based; conditions: wi-38
[12] = target: RAC-alpha serine/threonine-protein kinase (Homo sapiens, UniProt P31749); experiment: Inhibition of AKT1 (unknown origin)
Chain of RAC-alpha serine/threonine-protein kinase (P31749 whole entry): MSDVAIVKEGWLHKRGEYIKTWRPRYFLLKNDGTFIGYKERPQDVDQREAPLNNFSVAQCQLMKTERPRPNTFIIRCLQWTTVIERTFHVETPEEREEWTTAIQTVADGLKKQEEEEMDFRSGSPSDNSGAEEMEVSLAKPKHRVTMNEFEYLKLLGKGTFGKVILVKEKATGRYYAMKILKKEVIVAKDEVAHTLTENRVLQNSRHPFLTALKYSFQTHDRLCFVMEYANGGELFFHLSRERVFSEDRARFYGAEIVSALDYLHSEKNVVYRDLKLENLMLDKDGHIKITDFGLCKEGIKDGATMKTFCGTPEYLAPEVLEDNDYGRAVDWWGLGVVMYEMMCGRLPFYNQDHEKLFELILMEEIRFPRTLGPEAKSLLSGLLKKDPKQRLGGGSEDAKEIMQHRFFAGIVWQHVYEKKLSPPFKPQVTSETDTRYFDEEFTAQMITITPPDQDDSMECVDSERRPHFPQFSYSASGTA

HepG2 [13] = experiment: Cytotoxicity against human HepG2 cells assessed as reduction in cell viability; format: functional, cell-based
HCT-116 [14] = experiment: Cytotoxicity against human HCT-116 cells assessed as reduction in cell viability; format: functional, cell-based
[15] = Cytotoxicity against African green monkey Vero cells assessed as reduction in cell viability incubated for 72 hrs by crystal violet staining based analysis; format: toxicity, Chlorocebus sabaeus
HOP-92 = experiment: Growth inhibition of human HOP-92 cells incubated for 48 hrs by sulforhodamine B assay; format: functional
[16] = target: T1, Vascular endothelial growth factor receptor 2; experiment: Inhibition of VEGFR2 (unknown origin)
EA.hy 926 = experiment: Antiproliferative activity against human EA.hy 926 cells assessed as reduction in cell viability incubated for 48 hrs by MTT assay; format: functional, cell-based; conditions: EA.hy 926, 48 h
U-87 MG = experiment: Antiproliferative activity against human U87 cells assessed as inhibition of cell viability incubated for 72 hrs by MTT assay; format: functional, cell-based, U-87MG ATCC
[17] = target: Epidermal growth factor receptor (Homo sapiens, UniProt P00533); experiment: Inhibition of EGFR (unknown origin)
Chain of Epidermal growth factor receptor (P00533 whole entry): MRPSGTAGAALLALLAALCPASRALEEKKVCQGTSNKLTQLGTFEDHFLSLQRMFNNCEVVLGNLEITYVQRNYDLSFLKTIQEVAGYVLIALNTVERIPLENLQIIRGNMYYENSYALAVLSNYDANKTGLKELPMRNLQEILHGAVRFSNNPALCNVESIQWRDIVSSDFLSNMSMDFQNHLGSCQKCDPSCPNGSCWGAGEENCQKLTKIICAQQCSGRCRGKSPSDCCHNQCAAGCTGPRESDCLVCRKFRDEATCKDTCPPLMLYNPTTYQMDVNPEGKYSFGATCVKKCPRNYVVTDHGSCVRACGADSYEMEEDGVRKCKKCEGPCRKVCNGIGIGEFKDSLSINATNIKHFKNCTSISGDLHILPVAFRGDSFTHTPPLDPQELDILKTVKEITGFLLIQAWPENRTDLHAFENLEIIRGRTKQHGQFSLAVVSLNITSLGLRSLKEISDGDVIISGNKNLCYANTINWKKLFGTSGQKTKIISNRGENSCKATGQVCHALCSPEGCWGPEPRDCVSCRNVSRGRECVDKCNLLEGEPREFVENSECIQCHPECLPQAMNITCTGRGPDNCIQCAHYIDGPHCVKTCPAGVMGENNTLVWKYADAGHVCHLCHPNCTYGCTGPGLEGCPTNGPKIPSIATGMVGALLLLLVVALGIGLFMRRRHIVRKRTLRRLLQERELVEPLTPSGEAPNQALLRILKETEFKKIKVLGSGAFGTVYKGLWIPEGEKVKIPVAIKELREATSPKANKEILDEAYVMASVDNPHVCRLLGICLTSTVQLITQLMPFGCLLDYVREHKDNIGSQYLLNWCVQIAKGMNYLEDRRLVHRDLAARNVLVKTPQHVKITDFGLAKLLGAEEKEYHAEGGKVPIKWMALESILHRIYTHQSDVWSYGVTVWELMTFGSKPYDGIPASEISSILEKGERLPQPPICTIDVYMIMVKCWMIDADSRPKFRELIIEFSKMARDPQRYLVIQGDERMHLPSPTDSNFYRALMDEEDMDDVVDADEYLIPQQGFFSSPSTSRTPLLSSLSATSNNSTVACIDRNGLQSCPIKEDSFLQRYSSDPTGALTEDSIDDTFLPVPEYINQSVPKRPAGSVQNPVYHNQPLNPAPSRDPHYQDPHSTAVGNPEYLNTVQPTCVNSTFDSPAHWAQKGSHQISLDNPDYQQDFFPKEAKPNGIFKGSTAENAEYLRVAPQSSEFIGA

HepG2 [18] = experiment: Antiproliferative activity against human HepG2 cells; format: functional, cell-based
MCF7 [19] = experiment: Antiproliferative activity against human MCF7 cells; format: functional, cell-based
HCT-116 [20] = experiment: Antiproliferative activity against human HCT-116 cells; format: functional, cell-based
MDA-MB-231 = experiment: Antiproliferative activity against human MDA-MB-231 cells; format: functional, cell-based
Caco-2 = experiment: Antiproliferative activity against human Caco-2 cells; format: functional, cell-based
[21] = target: T1, Vascular endothelial growth factor receptor 2; experiment: Inhibition of VEGFR2 (unknown origin) incubated for 1 hr in presence of ATP by ELISA method
SF-539 = experiment: Antiproliferative activity against human SF-539 cells assessed as inhibition of cell growth at 10 uM after 48 hrs by sulforhodamine B assay relative to control; format: functional; parameters: scale not given: the % may be the effect or the level left
PC-3 [22] = experiment: Antiproliferative activity against human PC-3 cells assessed as reduction in cell growth; format: functional, cell-based
PC-3 [23] = experiment: Cytotoxicity against human PC-3 cells assessed as reduction in cell growth; format: toxicity, cell-based
[24] = Half life in human at 140 mg
[25] = Tmax in human at 140 mg; format: ADME
[26] = Cmax in human at 140 mg; format: ADME
[27] = as §1; format: toxicity, cell-based; conditions: human, WI-38 cells

T1 sequence (P35968 whole entry): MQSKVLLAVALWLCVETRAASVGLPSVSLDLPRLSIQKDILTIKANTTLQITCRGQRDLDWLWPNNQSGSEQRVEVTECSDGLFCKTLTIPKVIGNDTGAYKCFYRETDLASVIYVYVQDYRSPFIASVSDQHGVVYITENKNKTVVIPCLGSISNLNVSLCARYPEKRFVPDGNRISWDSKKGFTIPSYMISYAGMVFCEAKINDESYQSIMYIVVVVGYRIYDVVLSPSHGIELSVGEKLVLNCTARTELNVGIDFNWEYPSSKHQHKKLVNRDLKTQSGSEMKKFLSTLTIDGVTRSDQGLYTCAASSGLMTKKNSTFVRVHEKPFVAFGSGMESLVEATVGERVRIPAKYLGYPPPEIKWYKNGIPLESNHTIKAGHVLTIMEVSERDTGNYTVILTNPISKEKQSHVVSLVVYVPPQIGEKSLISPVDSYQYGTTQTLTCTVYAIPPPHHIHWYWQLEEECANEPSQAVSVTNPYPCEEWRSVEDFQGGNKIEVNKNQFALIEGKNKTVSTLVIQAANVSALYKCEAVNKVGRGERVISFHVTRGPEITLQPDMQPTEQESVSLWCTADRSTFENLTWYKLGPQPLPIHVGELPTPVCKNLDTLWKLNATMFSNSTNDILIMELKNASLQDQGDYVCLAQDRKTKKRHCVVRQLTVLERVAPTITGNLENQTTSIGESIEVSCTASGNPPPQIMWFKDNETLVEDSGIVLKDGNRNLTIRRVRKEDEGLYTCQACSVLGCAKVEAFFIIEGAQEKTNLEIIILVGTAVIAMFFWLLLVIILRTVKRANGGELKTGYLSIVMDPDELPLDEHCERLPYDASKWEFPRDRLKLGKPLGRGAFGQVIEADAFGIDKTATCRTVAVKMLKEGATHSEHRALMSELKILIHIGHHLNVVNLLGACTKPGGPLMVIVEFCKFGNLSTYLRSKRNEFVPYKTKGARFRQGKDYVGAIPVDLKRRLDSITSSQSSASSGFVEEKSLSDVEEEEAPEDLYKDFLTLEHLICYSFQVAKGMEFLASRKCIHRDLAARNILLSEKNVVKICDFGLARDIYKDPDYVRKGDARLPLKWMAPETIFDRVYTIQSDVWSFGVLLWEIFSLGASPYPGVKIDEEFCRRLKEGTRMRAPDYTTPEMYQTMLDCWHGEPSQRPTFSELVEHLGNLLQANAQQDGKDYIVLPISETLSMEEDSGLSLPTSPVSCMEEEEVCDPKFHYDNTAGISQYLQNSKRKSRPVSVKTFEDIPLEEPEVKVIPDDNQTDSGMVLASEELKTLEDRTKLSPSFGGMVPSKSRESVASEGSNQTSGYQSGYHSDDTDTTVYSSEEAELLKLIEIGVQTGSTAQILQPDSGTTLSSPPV

SMILES: Cc1cc(C)nc(NS(=O)(=O)c2ccc(/N=N/c3ccc(C4=NCC(=O)N(C)c5ccc(Cl)cc54)cc3)cc2)n1
IC50 [1]: 0.0001 µM | IC50 (HepG2 [2]): 8.98 µM | IC50 (HCT-116 [3]): 7.77 µM | IC50 (MCF7 [4]): 6.99 µM

SMILES: CN1CCC2=C1C1C(=O)NC(c3ccccc3)=NC1S2 (configuration not stated)
IC50 [9]: 0.126 µM | IC50 (HepG2 [10]): 3.11 µM | IC50 (PC-3 [11]): 2.15 µM | IC50 (WI-38): 12.5 µM | IC50 [12]: 6.96 µM

SMILES: Cc1nc2ccccc2n(CC(=O)Nc2ccc(C(=O)NCc3ccccc3)cc2)c1=O
IC50 (HepG2 [13]): 5.3 µM | IC50 (HCT-116 [14]): 2.2 µM | IC50 at 72 h [15]: 11.8 µM

SMILES: Cc1ccc(S(=O)(=O)Nc2ccc(-c3cc(-c4cccc(F)c4)c(C#N)c(N)n3)cc2)cc1
GI50 (HOP-92): 1.06 µM

SMILES: N#CCc1nnc(NC(=O)c2ccco2)s1
IC50 (PC-3 [22]): 0.0091 µM | IC50 (PC-3 [23]): 0.0687 µM

SMILES: CCOC(=O)c1c(NC(=S)Nc2cc(C)ccc2Cl)sc2c1N(C)CC2
IC50 (HepG2 [10]): 3.02 µM | IC50 (PC-3 [11]): 3.12 µM | IC50 at 24 h [27]: 35.3 µM

More lines, main results first:

IC50 [5]: 2.5 µM | IC50 (HepG2 [6]): 3.97 µM | IC50 (MCF7 [7]): 4.83 µM | IC50 (HCT-116 [8]): 4.58 µM
SMILES: CCn1c(SCC(=O)Nc2ccc(/C(C)=N/O)cc2)nc2ccccc2c1=O

IC50 [16]: 0.23 µM | IC50 (U-87 MG): 63.6 µM
SMILES: O=C(Nc1ccc(Oc2ccnc(C(=O)NCCCCNC(=O)C3CC4C=CC3C4)c2)cc1)Nc1ccc(Cl)c(C(F)(F)F)c1 (configuration not stated)
IC50 (EA.hy 926): 0.047 µM

IC50 [16]: 0.098 µM | IC50 [17]: 0.071 µM | IC50 (HepG2 [18]): 18.3 µM | IC50 (MCF7 [19]): 7.8 µM | IC50 (HCT-116 [20]): 31 µM | IC50 (MDA-MB-231): 23.7 µM | IC50 (Caco-2): 12.8 µM
SMILES: COc1ccc(-c2cc(-c3ccc(C)cc3)nc(NN)n2)cc1

IC50 [21]: 40.3 µM
SMILES: CNC(=O)c1nc(Nc2ccc(NC(=O)Nc3cccc(OC)c3)cc2)c2ccccc2n1
Activity (SF-539): 47.8%

half-life [24]: 112 h | Tmax [25]: 4 h | Cmax [26]: 554 ng/mL
SMILES: COc1cc2nccc(Oc3ccc(NC(=O)C4(C(=O)Nc5ccc(F)cc5)CC4)cc3)c2cc1OC [CABOZANTINIB]
